Earlier results in patent publication US20070123548A1, “Pth agonists” (priority 2004, published 2007).

Details: daily subcutaneous injection for up to 2 years

For `CC[C@H](C)[C@H](NC(=O)[C@H](CCC(=O)O)NC(=O)[C@H](CO)NC(=O)[C@@H](NC(=O)[C@@H](N)CO)C(C)C)C(=O)N[C@@H](CCC(N)=O)C(=O)N[C@@H](CC(C)C)C(=O)N[C@@H](CCSC)C(=O)N[C@@H](Cc1cnc[nH]1)C(=O)N[C@@H](CC(N)=O)C(=O)N[C@@H](CC(C)C)C(=O)NCC(=O)N[C@@H](CCCCN)C(=O)N[C@@H](Cc1cnc[nH]1)C(=O)N[C@@H](CC(C)C)C(=O)N[C@@H](CC(N)=O)C(=O)N[C@@H](CO)C(=O)N[C@@H](CCSC)C(=O)N[C@@H](CCC(=O)O)C(=O)N[C@@H](CCCN=C(N)N)C(=O)N[C@H](C(=O)N[C@@H](CCC(=O)O)C(=O)N[C@@H](Cc1c[nH]c2ccccc12)C(=O)N[C@@H](CC(C)C)C(=O)N[C@@H](CCCN=C(N)N)C(=O)N[C@@H](CCCCN)C(=O)N[C@@H](CCCCN)C(=O)N[C@@H](CC(C)C)C(=O)N[C@@H](CCC(N)=O)C(=O)N[C@@H](CC(=O)O)C(=O)N[C@H](C(=O)N[C@@H](Cc1cnc[nH]1)C(=O)N[C@@H](CC(N)=O)C(=O)N[C@@H](Cc1ccccc1)C(=O)O)C(C)C)C(C)C` [PTH(1-34)], the “Reduction of fracture incidence at non-vertebral sites” value is listed as 40% and the “Reduction of fracture incidence at the spine” value is listed as 65%.
